Reference: patent US10946024B2, “Method for treating cancer” (Epizyme, Inc., priority 2014, dated 2021)

What was measured:
Type in all cases: cell-based, human
[1] = tested on: HS-SY-II cells; experiment: Adherent cell line long-term (14-day) proliferation assay, CellTiter-Glo; conditions: 14-day long-term proliferation assay
Description: (§1) 96-well plating for 7 day assay: For each adherent cell line, plated cells in a volume of 100 μL in 96-well plates, to be treated in triplicate, either in the evening (to treat with compound the following day) or in morning (to treat with compound in the evening), to allow cells to attach to plates before compound treatment.
(§2) 6-well plates to be split for 7-14 day assay: Plated 2 mL of cells at the correct density in each well of the 6-well plate. Calculated the correct density from the 96-well plate growth curve by multiplying the 96-well density by 30. The factor 30 came from growth area of the 6-well plate divided by the growth area of the 96-well plate (9.5 cm^2/0.32 cm^2=29.7, rounded up to 30), which corresponds to 30-fold more surface area in a 6-well vs. a 96-well plate.
(§3) Day 0: Treated with compound or DMSO by removing media and adding back either 100 μL (for 96-well plate) or 2 mL (for 6-well plate) media with the correct dilutions of compound/DMSO. Table 1 includes an example of 96-well plate map. Plates were incubated for 96 hours.
(§4) Read one 96-well plate with CellTiter-Glo® for a Day 0 reading (media change not necessary for this plate).
(§5) Day 4: Read one 96-well plate with CellTiter-Glo® for a Day 4 reading (media change not necessary for this plate before reading). Replaced media with fresh media containing compound on Day 4 in 96-well plates and 6-well plates.
(§6) Day 7: read final 96-well plate with CellTiter-Glo®.
(§7) Counted individual wells of 6-well plates, and replated cells to initial plating density in 96-well plates, as described above.
(§8) Repeated steps for Days 0-7 for Days 7-14 of the proliferation assay.
(§9) Particularly, approximately 12 hours before compound treatment, HS-SY-II or SW982 cells were plated at the density of 24,000 cells/well and 7,500 cells/well, respectively in 6-well plates. On day 0, cells were treated with either DMSO or compound starting at 10 μmol/L and decreasing in fourfold dilutions. On day 7, the cells in 6-well plates were trypsinized, counted by TC10 automated cell counter (Bio-Rad, Richmond, Calif.) and replated at the density of 800 cells/well and 250 cells/well for HS-SY-II and SW982, respectively in 96-well plates in triplicate. The cells were allowed to adhere to the plate overnight, and treated with either DMSO or compound as on Day 0. On days 0, 7, 11, and 14, cell viability was determined by CellTiter-Glo® Luminescent Cell Viability Assay (Promega) with EnVision 2103 Multilabel Reader (Perkin-Elmer, Wellesley, Mass.). Compound/media was changed with new one on Day 4 and 11. The ratios of the measured values on Days 7, 11, and 14 to that of day 7 were used to plot proliferation from day 7 to day 14, and to calculate the IC50 values on Day 14. […]

[2] = tested on: SW982 cells; experiment: as above; conditions: SW982, 14-day long-term proliferation assay
Description: as §1, §2, §3, §4, §5, §6, §7, §8, §9

[3] = tested on: ATF3, EGR1 expression in SW982 cells; experiment: Gene expression changes in vitro by RT-PCR, normalized to GAPDH; parameters: key to EGR1 expression change, significance 0 uM vs.: *: Asterisks mean significant changes compared to levels of 0 μM-treated groups.; **: Asterisks mean significant changes compared to levels of 0 μM-treated groups.; ***: Asterisks mean significant changes compared to levels of 0 μM-treated groups.; ****: Asterisks mean significant changes compared to levels of 0 μM-treated groups
Description: (§10) HS-SY-II and SW982 cells were treated with EZH2 inhibitors (Compound A or EPZ-011989) and collected at the indicated time points. Total RNA isolation and cDNA synthesis were performed using the TaqMan Gene Expression Cells-to-CT kit (4399002, Life technologies) according to the manufacturer's protocol. ATF3, EGR1, CDKN2A and GAPDH expression were analyzed by using the TaqMan Gene Expression Assays (Life technologies, 4331182) and the TaqMan Probes (Hs00231069_m1, Hs00152928_m1, Hs00233365_m1, and Hs99999905_m1, respectively).

[4] = tested on: ATF3, EGR1, CDKN2A expression in HS-SY-II cells; experiment: as above; parameters: key to ATF3 expression change, significance 0 uM vs. / EGR1 expression change, significance 0 uM vs. / CDKN2A expression change, significance 0 uM vs.: *: Asterisks mean significant changes compared to levels of 0 μM-treated groups.; **: Asterisks mean significant changes compared to levels of 0 μM-treated groups.; ***: Asterisks mean significant changes compared to levels of 0 μM-treated groups.; ****: Asterisks mean significant changes compared to levels of 0 μM-treated groups; conditions: for ATF3 expression change, significance 0 uM vs. / CDKN2A expression change, significance 0 uM vs. / EGR1 expression change, significance 0 uM vs.: HS-SY-II
Description: as §10

Compound | sensitivity of cell proliferation [1] | sensitivity of cell proliferation [2] | EGR1 expression change, significance 0 uM vs. ([3]; SW 982, 0.1 uM, day 2) | EGR1 expression change, significance 0 uM vs. ([3]; SW 982, 0.1 uM, day 4) | EGR1 expression change, significance 0 uM vs. ([3]; SW 982, 1 uM, day 7) | ATF3 and EGR1 expression ([3]; SW982 in vitro culture) | ATF3 and EGR1 expression ([4]; HS-SY-II in vitro culture) | CDKN2A expression ([4]; HS-SY-II in vitro culture) | ATF3 expression change, significance 0 uM vs. ([4]; 0.1 uM, day 4) | CDKN2A expression change, significance 0 uM vs. ([4]; 0.1 uM, day 4) | EGR1 expression change, significance 0 uM vs. ([4]; 0.1 uM, day 4) | ATF3 expression change, significance 0 uM vs. ([4]; 1 uM, day 2) | CDKN2A expression change, significance 0 uM vs. ([4]; 1 uM, day 2) | ATF3 expression change, significance 0 uM vs. ([4]; 1 uM, day 4) | CDKN2A expression change, significance 0 uM vs. ([4]; 1 uM, day 4) | EGR1 expression change, significance 0 uM vs. ([4]; 1 uM, day 4) | ATF3 expression change, significance 0 uM vs. ([4]; 1 uM, day 7) | CDKN2A expression change, significance 0 uM vs. ([4]; 1 uM, day 7) | EGR1 expression change, significance 0 uM vs. ([4]; 1 uM, day 7)
CCN(c1cc(-c2ccc(CN3CCOCC3)cc2)cc(C(=O)NCc2c(C)cc(C)[nH]c2=O)c1C)[C@H]1CC[C@H](N(C)C)CC1 [Compound E] | high sensitivity | did not | – | – | – | – | – | – | – | – | – | – | – | – | – | – | – | – | –
CCN(c1cc(C#CCN2CCOCC2)cc(C(=O)NCc2c(C)cc(C)[nH]c2=O)c1C)C1CCC(N(C)CCOC)CC1 (stereo not shown) [EPZ-011989] | – | – | * | ** | * | not in SW982 | upregulated | Dose- and time-dependent CDKN2A upregulation | ** | **** | ** | * | *** | * | **** | ** | ** | **** | **
